Assay results published in patent publication US20230058171A1, “NEW ORAL PHARMACEUTICAL COMPOSITION FOR CANCER THERAPY” (BOEHRINGER INGELHEIM INTERNATIONAL GMBH, priority 2021, published 2023).

Tests used:
[1] = test system: advanced or metastatic solid tumors; assay: Trial 1403-0001 efficacy: tumor response according to RECIST1.1; format: in vivo, human; conditions: for Best overall response / days of exposure to the MDM2i of formula I: MDM2 AMPL
Description: Trial 1403-0001 was a first in human Phase Ia/Ib, open label, multicenter, dose-escalation study of the MDM2-antagonist of formula I in patients with advanced or metastatic solid tumors. The Phase Ia dose escalation part aimed to define the Maximum Tolerated Dose (MTD) and the Recommended Dose for Expansion (RDE) for the MDM2-antagonist of formula I based on safety and tolerability, pharmacokinetics, pharmacodynamics, and preliminary efficacy. The RDE will be further explored in the Phase Ib expansion part of the trial.
15 patients in Arm B experienced a stable disease in arm B (representing 60% of all treated patients).
A treatment with a drug candidate (here the MDM2-antagonist of formula I) leading to a “PARTIAL RESPONSE (PR)” is defined by a ≥30% decrease in the sum of diameters of target lesions, taking as reference the sum of diameters of the target lesions prior to treatment (=baseline sum of diameters) according to the RECIST1.1 criteria (Eisenhauer et al, Eur. J. Canc. (2009), Vol. 45, pp. 228-247).
A treatment with a drug candidate (here the MDM2-antagonist of formula I) leading to a “PROGRESSIVE DISEASE (PD)” is defined by a ≥20% increase in the sum of diameters of target lesions, taking as reference the smallest sum of diameters of target lesions on study (including the baseline sum of diameters if that is the smallest sum of diameters of target lesions on study) according to the RECIST1.1 criteria (Eisenhauer et al, Eur. J. Canc. (2009), Vol. 45, pp. 228-247).
A treatment with a drug candidate (here the MDM2-antagonist of formula I) leading to a “STABLE DISEASE (SD)” is defined by neither sufficient shrinkage to qualify for PR nor sufficient increase to qualify for PD, taking as reference the smallest sum of diameters of the target lesions on study (including the baseline sum of diameters if that is the smallest sum of diameters on study) according to the RECIST1.1 criteria (Eisenhauer et al, Eur. J. Canc. (2009), Vol. 45, pp. 228-247).

[2] = Human therapeutic dose prediction
Method: Preliminary pharmacokinetic (PK) data were used as supportive information for the dose decision. The human therapeutic dose was predicted based on a minimum effective AUC0-168 of 30,700 nM*h (QW), which was determined in a mouse SJSA-1 xenograft experiment. For this, the difference in plasma protein binding between human and mouse was taken into account, which translated to an effective AUC0-168 of 11,350 nM*h for QW dosing in humans. The human therapeutic dose was predicted to be 64 mg (free acid) with QW dosing.

[3] = Arm A patient 1392001001, WD LPS, 20 mg D1q3w
[4] = Arm A patient 1392001006, DDLPS, 50 mg D1q3w
[5] = Arm A patient 1840003004, DDLPS, 60 mg D1q3w, no prior therapy
[6] = Arm A patient 1840003006, DDLPS, 50 mg D1q3w
[7] = Arm A patient 1840003008, DDLPS, 60 mg D1q3w
[8] = Arm B patient 1392001005, DDLPS, 15/15 mg D1D8q4w
[9] = Arm B patient 1392001007, DDLPS, 30/30 mg D1D8q4w
[10] = Arm B patient 1392001009, WD LPS, 60/60 mg D1D8q4w
[11] = Arm B patient 1840002005, DDLPS, 20/20 mg D1D8q4w, no prior therapy
[12] = Arm B patient 1840003009, DDLPS, 45/45 mg D1D8q4w
[13] = Arm B patient 1840003010, DDLPS, 45/45 mg D1D8q4w
[14] = Arm B patient 1840003011, WD LPS, 30/30 mg D1D8q4w
[15] = Arm B patient 1840003014, WD LPS, 45/45 mg D1D8q4w

With `Cc1c(C(=O)O)ccc2c3n(nc12)[C@@H]1[C@H](C3)N(CC2CC2)[C@@]2(C(=O)Nc3cc(Cl)ccc32)[C@H]1c1cccc(Cl)c1F` [MDM2-antagonist of formula I, (2′S,3′S,3a'S,10a'S)-6-chloro-3′-(3-chloro-2-fluorophenyl)-1′-(cyclopropylmethyl)-6′-methyl-2-oxo-1,2,3′,3a′,10′,10a′-hexahydro-1′H-spiro[indole-3,2′-pyrrolo[2′,3′:4,5]pyrrolo[1,2-b]indazole]-7′-carboxylic acid] the Best overall response [1, 3] was “PR (PR, tumor shrinkage of at least −30%)”, the “days of exposure to the MDM2i of formula I” value (from here on “days of exposure”) [1, 3] was 778 days and the Best overall response [1, 4] was “SD (SD, tumor growth modification between +20% and −30%)”. The “days of exposure” value [1, 4] was 107 days, the Best overall response ([1]; Arm A patient 1392001011, WDLPS, 80 mg D1q3w) was “PR (PR, tumor shrinkage of at least −30%)” and the “days of exposure” value ([1]; Arm A patient 1392001011, WDLPS, 80 mg D1q3w, ongoing) was 228 days. The Best overall response ([1]; Arm A patient 1840002004, DDLPS, 45 mg D1q3w) was “SD (SD, tumor growth modification between +20% and −30%)”, the “days of exposure” value ([1]; Arm A patient 1840002004, DDLPS, 45 mg D1q3w, third line) was 353 days and the Best overall response [1, 5] was “SD (SD, tumor growth modification between +20% and −30%)”. The “days of exposure” value [1, 5] was 342 days, the Best overall response [1, 6] was “SD (SD, tumor growth modification between +20% and −30%)” and the “days of exposure” value [1, 6] was 85 days. For the same compound, the Best overall response [1, 7] was “SD (SD, tumor growth modification between +20% and −30%)”, the “days of exposure” value [1, 7] was 57 days and the Best overall response ([1]; Arm A patient 1840003013, WDLPS, 80 mg D1q3w) was “SD (SD, tumor growth modification between +20% and −30%)”. The “days of exposure” value ([1]; Arm A patient 1840003013, WDLPS, 80 mg D1q3w, ongoing) was 214 days, the Best overall response ([1]; Arm A patient 1846002602, DDLPS, 45 mg D1q3w) was “SD (SD, tumor growth modification between +20% and −30%)” and the “days of exposure” value ([1]; Arm A patient 1846002602, DDLPS, 45 mg D1q3w, second line) was 709 days. For the same compound, the tumor shrinkage ([1]; Arm A patient with p53-wildtype MDM2-amplified biliary adenocarcinoma, partial response) was 54%, the Best overall response [1, 8] was “SD (SD, tumor growth modification between +20% and −30%)” and the “days of exposure” value [1, 8] was 491 days. The Best overall response [1, 9] was “SD (SD, tumor growth modification between +20% and −30%)”, the “days of exposure” value [1, 9] was 218 days and the Best overall response [1, 10] was “SD (SD, tumor growth modification between +20% and −30%)”. For the same compound, the “days of exposure” value [1, 10] was 105 days, the Best overall response [1, 11] was “SD (SD, tumor growth modification between +20% and −30%)” and the “days of exposure” value [1, 11] was 542 days. For the same compound, the Best overall response [1, 12] was “SD (SD, tumor growth modification between +20% and −30%)”, the “days of exposure” value [1, 12] was 274 days and the Best overall response [1, 13] was “SD (SD, tumor growth modification between +20% and −30%)”. The “days of exposure” value [1, 13] was 64 days, the Best overall response [1, 14] was “SD (SD, tumor growth modification between +20% and −30%)” and the “days of exposure” value [1, 14] was 100 days. For the same compound, the Best overall response ([1]; Arm B patient 1840003012, WD LPS, 60/60 mg D1D8q4w) was “PR (PR, tumor shrinkage of at least −30%)”, the “days of exposure” value ([1]; Arm B patient 1840003012, WD LPS, 60/60 mg D1D8q4w, ongoing) was 221 days and the Best overall response [1, 15] was “SD (SD, tumor growth modification between +20% and −30%)”. The “days of exposure” value [1, 15] was 127 days, the tumor shrinkage ([1]; Arm B patient with p53 wildtype MDM2-amplified pancreatic adenocarcinoma (PAC), partial response) was 41% and the tumor shrinkage ([1]; DDLPS patient, 45 mg, second line therapy, for 709 days) was “approx. 5%”. For the same compound, the tumor shrinkage ([1]; DDLPS patient, 45 mg, third line therapy, for 353 days) was “approx. 10%”, the “Disease control, % of patients” value ([1]; arm A (29 treated)) was “(75.9) %” and the “Disease control, number of patients” value ([1]; arm A (29 treated)) was 22. For the same compound, the “Partial response, number of patients” value ([1]; arm A (29 treated)) was 3, the “Progressive disease, % of patients” value ([1]; arm A (29 treated)) was “(20.7) %” and the “Progressive disease, number of patients” value ([1]; arm A (29 treated)) was 6. The “Stable disease, number of patients” value ([1]; arm A (29 treated)) was 19, the “Disease control, % of patients” value ([1]; arm B (25 treated)) was “(68) %” and the “Disease control, number of patients” value ([1]; arm B (25 treated)) was 17. For the same compound, the “Partial response, number of patients” value ([1]; arm B (25 treated)) was 2, the “Progressive disease, % of patients” value ([1]; arm B (25 treated)) was “(20) %” and the “Progressive disease, number of patients” value ([1]; arm B (25 treated)) was 5. For the same compound, the “Stable disease, number of patients” value ([1]; arm B (25 treated)) was 15, the “Disease control, % of patients” value ([1]; both arms (54 treated)) was “(72) %” and the “Disease control, number of patients” value ([1]; both arms (54 treated)) was 39. The “Partial response, number of patients” value ([1]; both arms (54 treated)) was 5, the “Progressive disease, % of patients” value ([1]; both arms (54 treated)) was “(20.3) %” and the “Progressive disease, number of patients” value ([1]; both arms (54 treated)) was 11. The “Stable disease, number of patients” value ([1]; both arms (54 treated)) was 34, the “approximate median PFS” value ([1]; eleven dedifferentiated liposarcoma (DDLPS) patients) was “around 10.8 months” and the “patients with partial response” value ([1]; of seven well differentiated liposarcoma (WDLPS) patients) was “three”. For the same compound, the duration of response ([1]; one patient in Arm A) was “more than 2 years”, the Cmax ([2]; at predicted human therapeutic dose, QW) was 680 nM and the “predicted human therapeutic dose” value ([2]; free acid, QW dosing) was 64 mg. For the same compound, the AUC(0-t) ([2]; oral, 64 mg, QW dosing in humans, corrected for plasma protein binding human vs mouse, read-out: effective AUC0-168) was 11.3 µM·h.
